These results are taken from ChEMBL document CHEMBL1148758, “Guanidine and 2-aminoimidazoline aromatic derivatives as alpha(2)-adrenoceptor antagonists, 1: toward new antidepressants with heteroatomic linkers” (J Med Chem, 2007).

What all share (type): functional
Assay [1] addresses T1, Adrenergic receptor alpha-2 (Homo sapiens, UniProt P08913+P18825+P18089).
T1 sequence (P08913 whole entry): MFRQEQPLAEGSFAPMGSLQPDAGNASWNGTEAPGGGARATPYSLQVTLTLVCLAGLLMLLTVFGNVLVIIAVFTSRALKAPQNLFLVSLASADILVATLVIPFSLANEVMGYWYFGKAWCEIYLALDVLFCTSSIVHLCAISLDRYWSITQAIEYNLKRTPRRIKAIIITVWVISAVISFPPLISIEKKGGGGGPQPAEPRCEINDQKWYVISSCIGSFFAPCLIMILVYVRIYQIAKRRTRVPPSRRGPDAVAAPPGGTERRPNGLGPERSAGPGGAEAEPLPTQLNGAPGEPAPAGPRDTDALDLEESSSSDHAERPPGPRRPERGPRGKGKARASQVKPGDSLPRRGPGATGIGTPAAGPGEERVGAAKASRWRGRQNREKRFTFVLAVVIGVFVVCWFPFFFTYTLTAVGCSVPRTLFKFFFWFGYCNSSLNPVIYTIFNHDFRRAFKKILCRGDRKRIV
T1 sequence (P18825 whole entry): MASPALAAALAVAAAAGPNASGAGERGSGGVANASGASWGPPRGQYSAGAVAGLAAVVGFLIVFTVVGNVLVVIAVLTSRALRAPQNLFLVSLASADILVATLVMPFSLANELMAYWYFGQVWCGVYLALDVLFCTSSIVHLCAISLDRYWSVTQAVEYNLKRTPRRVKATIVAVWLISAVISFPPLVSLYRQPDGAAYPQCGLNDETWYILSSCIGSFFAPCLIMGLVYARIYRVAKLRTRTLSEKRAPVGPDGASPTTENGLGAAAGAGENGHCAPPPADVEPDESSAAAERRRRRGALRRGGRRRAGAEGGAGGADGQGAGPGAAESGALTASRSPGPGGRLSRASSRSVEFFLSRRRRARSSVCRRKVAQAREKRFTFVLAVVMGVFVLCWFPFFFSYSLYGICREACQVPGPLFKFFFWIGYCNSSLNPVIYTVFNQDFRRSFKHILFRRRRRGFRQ
T1 sequence (P18089 whole entry): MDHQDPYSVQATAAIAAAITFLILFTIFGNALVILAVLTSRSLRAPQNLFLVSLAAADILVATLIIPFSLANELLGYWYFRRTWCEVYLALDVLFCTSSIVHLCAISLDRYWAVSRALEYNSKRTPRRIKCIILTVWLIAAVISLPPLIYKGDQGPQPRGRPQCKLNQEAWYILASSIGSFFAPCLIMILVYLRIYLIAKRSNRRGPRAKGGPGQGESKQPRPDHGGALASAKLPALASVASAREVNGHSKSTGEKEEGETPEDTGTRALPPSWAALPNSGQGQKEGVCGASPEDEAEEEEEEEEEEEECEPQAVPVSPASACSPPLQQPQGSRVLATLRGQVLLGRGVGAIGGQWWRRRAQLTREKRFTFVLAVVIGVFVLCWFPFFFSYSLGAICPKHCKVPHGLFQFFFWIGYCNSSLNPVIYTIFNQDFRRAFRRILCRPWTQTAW
The assay can be described thus: Antagonist activity at human brain adrenergic alpha-2 receptor assessed as UK-14304-stimulated [35S]GTPgammaS binding at 10 uM.

Assay [2] has as its system Rattus norvegicus. The assay can be described thus: Increase in noradrenergic extracellular noradrenaline level in locally administered Sprague-Dawley rat by microdialysis assay.
Assay [3] has as its system Rattus norvegicus. The assay can be described thus: Increase in noradrenergic extracellular noradrenaline level in Sprague-Dawley rat at 8 mg/kg, ip by microdialysis assay. The note with it: route intraperitoneal.
Assay [4] concerns the target T1, Adrenergic receptor alpha-2. The assay can be described thus: Agonist activity at human brain adrenergic alpha2 receptor by [35S]GTPgammaS binding assay. (GTPγS resists hydrolysis and so accumulates on activated G proteins.)

As for `c1cc2c(cc1NC1=NCCN1)OCO2`, the concentration for a half-maximal effect (EC50) (usually the concentration that produces a half-maximal response) in assay [1] was determined as 141 µM. In addition, the Activity in assay [2] is 240%; in assay [3], 328%.

Turning to `c1ccc2c(c1)OCC(C1=NCCN1)O2` (stereo not drawn) [IDAZOXAN], the Activity in assay [2] is recorded as 235%. With `CN(C)c1ccc(NC2=NCCN2)cc1`, the Activity in assay [2] stood at 316%; in assay [3], 192%. Compound `COC1(C2=NCCN2)COc2ccccc2O1` (stereo not drawn) returned an Activity in assay [2] of 287%.

On to `COc1ccc(NC2=NCCN2)cc1`, for which the EC50 in assay [4] stood at 30.4 µM.
